In patent US6339069B1, “Peptide-lipid conjugates, liposomes and lipsomal drug delivery” (Elan PharmaceuticalsTechnologies, Inc., priority 1996, dated 2002):

Experiments:
[1] = pH 7.4; cited from earlier work
[2] = target: T1, Human leukocyte elastase (HLE) (Homo sapiens, UniProt P08246); test: Cleavage of MeO-suc-ala-ala-pro-val-DOPE by HLE (TLC, 31P-NMR); format: biochemical; details: 2 hours
T1 construct: purchased Calbiochem (San Diego, Calif.)
T1 sequence (P08246 30-247 limits assumed): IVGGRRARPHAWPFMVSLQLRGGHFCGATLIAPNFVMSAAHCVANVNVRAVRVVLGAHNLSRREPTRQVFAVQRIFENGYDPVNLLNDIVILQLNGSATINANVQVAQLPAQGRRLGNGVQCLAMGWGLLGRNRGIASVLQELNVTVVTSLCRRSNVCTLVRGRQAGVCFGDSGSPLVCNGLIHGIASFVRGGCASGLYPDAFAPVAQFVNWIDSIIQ
Procedure: To determine if the peptide-lipid MeO-suc-ala-ala-pro-val-DOPE (SEQ ID NO:42) is also a suitable substrate for elastase mediated cleavage 50 nmol of MeO-suc-ala-ala-pro-val-DOPE liposomes (SUVs) were incubated with 0, 2.5, 5, 10, or 20 ug HLE (from Calbiochem; 20 units/mg protein; 1 unit=amount of enzyme that will hydrolyze 1.0 umol of MeO-suc-ala-ala-pro-val-pNA per min at 25 degrees C., pH 8.0) overnight at 37 degrees C. in 50 ul volume of 10 mM TES/ 154 mM NaCl/ 0.1 mM EDTA, pH 7.4, containing 1.5 mM Ca and 1.5 mM Mg.
Lipid was extracted using the Bligh-Dyer technique (chloroform/methanol/water: 2/1.7/1), dried under nitrogen, placed under high vacuum for ˜3 hours. Samples were resuspended in 5 ul chloroform and spotted onto TLC plates. 20 ug of pure DOPE was also spotted for comparison purposes. TLC solvent system was chloroform/methanol/ammonium hydroxide (65/25/5). Plates were air dried, sprayed with molybdenate blue, then charred at 180 degrees C.
MeO-suc-ala-ala-pro-val-DOPE liposomes were incubated with 0 or 5 ug HLE for 1, 2, 4 hours, or overnight and processed as above. The peptide was cleaved by HLE in as little as 1 hour at 37 degrees C.
The conversion of MeO-suc-AAPV-DOPE to DOPE (SEQ ID NO:42) was also quantitated by ^31P-NMR. […] A small shoulder that may indicate an incomplete peptide cleavage product was also observed near the original peptide-lipid peak. Treatment with 5 micrograms of elastase/100 nmol lipid yielded 20% DOPE. Longer incubation may have lead to further digestion, though multiple lamellae and/or the surface charge of the liposome may limit the ultimate amount digested. The maximum exposed peptide-lipid for intact liposomes would occur with unilamellar vesicles. Assuming only the outer leaflet peptide-lipid in unilamellar vesicles is available for digestion, the minimal percentage conversion of exposed MeO-suc-AAPV-DOPE (SEQ ID NO:42) to DOPE in the outer leaflet lipid of this preparation was 40% (FIG. 6, dotted line). If the average number of lamellae were greater than one, the percentage conversion was even higher. […]

[3] = tested on: S. griseus (“pronase”); test: Cleavage of N-Ac-ala-ala-DOPE by pronase (HPLC); format: biochemical; details: DOTAP/N-acetyl-ala-ala-PE 1:1 SUVs, 100 nmole, 0.5 or 1.0 mg enzyme, overnight, 37 degrees C.
Procedure: (§1) To compare the effect of different proteolytic enzymes on the cleavage of N-acetyl-ala-ala-DOPE, small unilamellar liposomes composed of DOTAP and N-acetyl-ala-ala-PE (1:1 molar ratio, 100 nmole), prepared as described hereinabove, were incubated overnight at 37 degrees C. with either 0.5 mg (experiment 1) or 1.0 mg (experiment 2) of: S. caespitosus protease, S. priseus (“pronase”), peptidase, chymotrypsin, trypsin, protease type I, proteinase K, or with no enzyme added.
(§2) Subsequently, lipid was extracted from these preparations by organic phase separation, and dried under vacuum. The dried lipid was suspended in ethanol, and the resulting lipidic solution was then injected into a normal phase silica column. Analysis was by HPLC, as described above. Lipid peaks were quantitated, and the amount of lipid cleavage was calculated as a percentage of the starting lipid.

[4] = tested on: S. caespitosus protease, peptidase, chymotrypsin, trypsin, protease type I; test: Cleavage of N-Ac-ala-ala-DOPE by other proteases (HPLC); format: biochemical; details: DOTAP/N-acetyl-ala-ala-PE 1:1 SUVs, 100 nmole, 0.5 or 1.0 mg enzyme, overnight, 37 degrees C.
Procedure: as §1, §2

[5] = target: proteinase K (Parengyodontium album, UniProt P06873); test: Proteinase K-mediated cleavage of N-Ac-AA-DOPE (TLC, 31P-NMR, HPLC); format: biochemical
Procedure: Several proteases were tested to determine whether an enzyme with similar substrate specificity could be used as a model for elastase mediated cleavage of N-Ac-AA-DOPE. Proteinase K is a serine protease that, similarly to elastase, can cleave at peptide bonds C-terminal to aliphatic residues.
Subsequently, proteinase K, which has a similar substrate specificity to elastase, was used to model the elastase effect because of the lower cost of the enzyme. Referring to FIG. 3, samples A and C contained pure N-acetyl-ala-ala-DOPE and pure DOPE, respectively; sample B consisted of multilamellar liposomes, prepared as described hereinbelow, composed of pure N-acetyl-ala-ala-DOPE (2 μmole total phospholipid), which were incubated in 200 μl of 154 mM NaCl, 10 mM TES, 0.1 mM EDTA at pH 7.4 and 37 ° C. for two hours in the presence of 1 mg of proteinase K. After the first incubation, another equal amount of proteinase K was added and the sample was incubated for another 2 hours. All three samples were dissolved into a final concentration of 5% deoxycholate, 50 mM EDTA and 10 mM HEPES at pH 8 for proton decoupled ^31P NMR.
The conversion of N-Ac-AA-DOPE to DOPE was also monitored by ^31P-NMR analysis. N-Ac-AA-DOPE LUVs were prepared and treated with or without proteinase K (1.5 mg protein/100 nmol lipid) overnight at 37° C. Samples were mixed with buffer (10% deoxycholate, 100 mM EDTA, 20 mM Hepes) and deuterium oxide (Cambridge Isotope Laboratories, Woburn, Mass.) (1:4:2) and transferred to 5 mm NMR tubes. Samples were monitored at room temperature in a Bruker AC300 spectrometer operating at 121.5 MHz, with […] 90° radio frequency pulse for proton decoupling and set to 2 sec interpulse delay to avoid signal saturation. Sweep width was set at 50 kHz. 1 Hz line broadening was applied to all spectra.
Elastase and proteinase K mediated cleavage of N-Ac-AA-DOPE was quantitated using liposomes composed of N-Ac-AA-DOPE and DOTAP, a positively charged lipid. DOTAP was included to provide a counterbalancing positive charge, and was used as a standard by which different samples could be normalized and compared. After treatment with elastase or proteinase K the reduction in the amount of N-Ac-AA-DOPE was monitored by HPLC (FIG. 4). Liposomes composed of DOTAP/N-Ac-AA-DOPE (1:1) were incubated with enzyme under given conditions. Lipid was extracted by the Bligh-Dyer procedure twice.
Collected lipid was dried under a N2 stream and exposed to vacuum for 4 hours-overnight. Samples were resuspended in 100% ethanol and injected in 30 ul aliquots into Spherisorb silica columns (150×4.6 mm, […], Keystone Scientific). HPLC was performed using a hexane:isopropanol:water:TFA mobile phase. Hexane and TFA were held constant at 37% and 0.2%, respectively. The N-Ac-AA-DOPE peak was detected using a gradient of 59-55% isopropanol:4-8% water. Flow rate was 1.5 ml/min, column temperature was set at 45° C., and peaks were detected by a UV detector set at 205 nm. Lipid peaks were quantitated in comparison to standard curves generated by injecting 5-200 nmol of DOTAP or N-Ac-AA-DOPE and monitoring 205 nm signal. Percent cleavage was calculated by normalizing peaks to DOTAP, then determining the decrease in N-Ac-AA-DOPE peak size relative to starting amounts.
To verify that the cleavage of N-Ac-AA-DOPE was due to proteinase K enzymatic activity, liposomes were treated with heat inactivated proteinase K. Proteinase K was inactivated by heating at 95° C. for 1 hour, after which the enzyme was incapable of cleaving the chromogenic substrate N-Ac-AAA-pNA. […] In these experiments liposomes, prepared as described hereinbelow, were composed of 100% N-Acetyl-ala-ala-DOPE and were then extruded to approximately 0.2 microns diameter. Fifty micrograms of liposomal lipid was incubated alone or with one unit of HLE overnight at 37° C. […]

[6] = target: T2, Human leukocyte elastase (Homo sapiens, UniProt P08246); test: Elastase-mediated cleavage of N-Ac-AA-DOPE to DOPE (TLC, HPLC); format: biochemical; details: overnight, 37° C.
T2 construct: purchased Calbiochem (San Diego, Calif.)
T2 sequence (P08246 30-247 limits assumed): T1 sequence (P08246 30-247 limits assumed)
Procedure: Cleavage of N-Ac-ala-ala-DOPE to DOPE by elastase was monitored by thin layer chromatography (TLC). The chemical structure of N-Ac-ala-ala-DOPE and its postulated scheme of conversion to DOPE by enzymatic cleavage is shown in FIG. 1. 100-200 nmol of N-Ac-AA-DOPE SUVs were incubated with 1 mg enzyme in 0.1 ml overnight at 37° C. Human leukocyte elastase was purchased from Calbiochem (San Diego, Calif.). Lipid was extracted by organic phase separation (Bligh and Dyer, 1959) twice. Collected lipid was dried under N^2 stream and exposed to vacuum for 4 hours-overnight. Samples were resuspended in chloroform and spotted onto TLC plates. […]
Elastase and proteinase K mediated cleavage of N-Ac-AA-DOPE was quantitated using liposomes composed of N-Ac-AA-DOPE and DOTAP, a positively charged lipid. […] After treatment with elastase or proteinase K the reduction in the amount of N-Ac-AA-DOPE was monitored by HPLC (FIG. 4). […]
Collected lipid was dried under a N2 stream and exposed to vacuum for 4 hours-overnight. […] The N-Ac-AA-DOPE peak was detected using a gradient of 59-55% isopropanol:4-8% water. Flow rate was 1.5 ml/min, column temperature was set at 45° C., and peaks were detected by a UV detector set at 205 nm. Lipid peaks were quantitated in comparison to standard curves generated by injecting 5-200 nmol of DOTAP or N-Ac-AA-DOPE and monitoring 205 nm signal. […]

proteinase K, sequence (P06873 106-384, species assumed): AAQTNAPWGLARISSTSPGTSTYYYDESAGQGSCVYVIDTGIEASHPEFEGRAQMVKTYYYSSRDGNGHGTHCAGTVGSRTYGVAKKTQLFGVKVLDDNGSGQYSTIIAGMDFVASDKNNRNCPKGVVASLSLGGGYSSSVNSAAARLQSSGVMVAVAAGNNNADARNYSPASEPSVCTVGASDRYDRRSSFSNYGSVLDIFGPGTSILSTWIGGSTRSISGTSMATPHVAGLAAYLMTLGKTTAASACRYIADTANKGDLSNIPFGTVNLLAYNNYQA

Which “DODAP population positively charged” value [1] does the source give for CCCCCCCC/C=C\CCCCCCCC(=O)OCC(CN(C)C)OC(=O)CCCCCCC/C=C\CCCCCCCC (centres unmarked) [DODAP, 1-N,N-dimethylamino dioleoyl propane] here?
The value was 20%.

For CCCCCCCC/C=C\CCCCCCCC(=O)OC[C@H](COP(=O)(O)OCCNC(=O)[C@@H](NC(=O)[C@@H]1CCCN1C(=O)[C@H](C)NC(=O)[C@H](C)NC(=O)CCC(=O)OC)C(C)C)OC(=O)CCCCCCC/C=C\CCCCCCCC [MeO-suc-AAPV-DOPE, 1,2-Dioleoyl-sn-glycero-3-phosphoethanolamido-val-pro-ala-ala-sucMeO], which “DOPE yielded from MeO-suc-AAPV-DOPE (31P-NMR)” value ([2]; DODAP/MeO-suc-AAPV-DOPE 1:1 vesicles, 5 micrograms of elastase/100 nmol lipid, 37° C.) is on record?
Its value is 20%.

What about the Available peptide-lipid cleaved ([2]; assuming approximately 2.5 lamellae per vesicle, 5 micrograms elastase/100 nmol lipid) of the same compound?
Its Available peptide-lipid cleaved is 100%.

And the “Minimal percentage conversion of exposed MeO-suc-AAPV-DOPE to DOPE in the outer leaflet” value ([2]; assuming unilamellar vesicles, 5 micrograms elastase/100 nmol lipid)?
The value was no less than 40%.

Which “Cleavage of N-Ac-ala-ala-DOPE from liposomes by pronase (HPLC)” value [3] does the source give for CCCCCCCC/C=C\CCCCCCCC(=O)OCC(COP(=O)(O)OCCNC(=O)[C@H](C)NC(=O)[C@H](C)NC(C)=O)OC(=O)CCCCCCC/C=C\CCCCCCCC (some centres unmarked) [N-Ac-AA-DOPE, N-acetyl-alanyl-alanyl-dioleoyl phosphatidylethanolamine] here?
Its value is “effected cleavage”.

And the “Cleavage of N-Ac-ala-ala-DOPE from liposomes by other proteases (HPLC)” value [4]?
Its value is “did not cleave”.

What about the “Cleavage of N-Ac-AA-DOPE by proteinase K (HPLC)” value ([5]; DOTAP/N-Ac-AA-DOPE (1:1) liposomes, 1 mg protease/100 nmol lipid, overnight, 37° C.) of the same compound?
The value was “cleaved N-Ac-AA-DOPE to a similar extent”.

And the “Cleavage of N-Ac-AA-DOPE by heat inactivated proteinase K (HPLC)” value ([5]; DOTAP/N-Ac-AA-DOPE liposomes, proteinase K inactivated 95° C., 1 hour)?
The value was “did not result in any cleavage”.

And the “Cleavage of N-Ac-ala-ala-DOPE from liposomes by proteinase K (HPLC)” value ([5]; DOTAP/N-acetyl-ala-ala-PE 1:1 SUVs, 100 nmole, 0.5 or 1.0 mg enzyme, overnight, 37 degrees C.)?
Its value is “effected cleavage”.

What about the “Conversion of N-Ac-AA-DOPE to DOPE (31P-NMR)” value ([5]; LUVs, proteinase K 1.5 mg protease/100 nmol lipid, overnight, 37° C.) of the same compound?
The value was “appearance of a peak 0.3 ppm upfield from N-Ac-AA-DOPE, corresponding with pure DOPE”.

And the “Cleavage of N-Ac-AA-DOPE by proteinase K (TLC)” value ([5]; N-Ac-AA-DOPE liposomes, 1 mg enzyme/100 nmol lipid, overnight, 37° C.)?
The value was “the peptide-lipid was cleaved and DOPE was generated”.

What about the “N-acetyl-ala-ala-DOPE converted to pure DOPE (31P NMR integration)” value ([5]; multilamellar liposomes of pure conjugate, 1 mg proteinase K 2 hours + equal amount another 2 hours, pH 7.4, 37° C.) of the same compound?
The value was “approximately 20%”.

And the “Cleavage of N-Ac-AA-DOPE by elastase (HPLC)” value ([6]; DOTAP/N-Ac-AA-DOPE (1:1) liposomes, 1 mg protease/100 nmol lipid)?
Its value is “cleaved N-Ac-AA-DOPE to a similar extent”.

And the “Cleavage of N-Ac-AA-DOPE to DOPE by elastase (TLC)” value ([6]; N-Ac-AA-DOPE SUVs, 1 mg enzyme in 0.1 ml)?
Its value is “generated a product corresponding to DOPE”.
